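At the GI50, growth is halved. The concentration for full growth arrest is given as TGI.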
How the values were obtained:
Assay in all cases: NCI tumour cell line growth inhibition, 384-well format
HL-60(TB) leukemia = test system: HL-60(TB) leukemia
NCI-H23 lung = test system: NCI-H23 lung
HCC-2998 colon = test system: HCC-2998 colon
NCI/ADR-RES ovarian = test system: NCI/ADR-RES ovarian
TK-10 renal = test system: TK-10 renal
RXF 393 renal = test system: RXF 393 renal
IGROV1 ovarian = test system: IGROV1 ovarian
K-562 leukemia = test system: K-562 leukemia
COLO 205 colon = test system: COLO 205 colon
MCF7 breast = test system: MCF7 breast
RPMI-8226 leukemia = test system: RPMI-8226 leukemia
SK-MEL-2 melanoma = test system: SK-MEL-2 melanoma
HT29 colon = test system: HT29 colon
LOX IMVI melanoma = test system: LOX IMVI melanoma
UACC-257 melanoma = test system: UACC-257 melanoma
OVCAR-5 ovarian = test system: OVCAR-5 ovarian
OVCAR-3 ovarian = test system: OVCAR-3 ovarian
HOP-62 NSCLC = test system: HOP-62 NSCLC
M14 melanoma = test system: M14 melanoma
DU-145 prostate = test system: DU-145 prostate
BT-549 breast = test system: BT-549 breast
MALME-3M melanoma = test system: MALME-3M melanoma
NCI-H226 lung = test system: NCI-H226 lung
SF-268 CNS = test system: SF-268 CNS
A549 NSCLC = test system: A549 NSCLC
T-47D breast = test system: T-47D breast
SN12C renal = test system: SN12C renal
786-0 renal = test system: 786-0 renal
SK-MEL-28 melanoma = test system: SK-MEL-28 melanoma
NCI-H460 NSCLC = test system: NCI-H460 NSCLC
OVCAR-4 ovarian = test system: OVCAR-4 ovarian
MOLT-4 leukemia = test system: MOLT-4 leukemia
MDA-MB-468 breast = test system: MDA-MB-468 breast
SNB-75 CNS = test system: SNB-75 CNS
PC-3 prostate = test system: PC-3 prostate
MDA-MB-435 melanoma = test system: MDA-MB-435 melanoma
SK-MEL-5 melanoma = test system: SK-MEL-5 melanoma
EKVX NSCLC = test system: EKVX NSCLC
SK-OV-3 ovarian = test system: SK-OV-3 ovarian
MDA-MB-231 breast = test system: MDA-MB-231 breast
SNB-19 CNS = test system: SNB-19 CNS
A498 renal = test system: A498 renal
SF-539 CNS = test system: SF-539 CNS
KM12 colon = test system: KM12 colon
UO-31 renal = test system: UO-31 renal
HOP-92 NSCLC = test system: HOP-92 NSCLC
CCRF-CEM leukemia = test system: CCRF-CEM leukemia
SR leukemia = test system: SR leukemia
UACC-62 melanoma = test system: UACC-62 melanoma
SF-295 CNS = test system: SF-295 CNS
HCT-116 colon = test system: HCT-116 colon
NCI-H522 lung = test system: NCI-H522 lung
ACHN renal = test system: ACHN renal
CAKI-1 renal = test system: CAKI-1 renal
OVCAR-8 ovarian = test system: OVCAR-8 ovarian
U251 glioblastoma = test system: U251 glioblastoma
SW-620 colon = test system: SW-620 colon
NCI-H322M lung = test system: NCI-H322M lung
HCT-15 colon = test system: HCT-15 colon

Structure (SMILES): CCc1cccc(CC)c1NC(=O)c1ccn2c1CCc1cnc(Nc3ccc(N4CCN(C)CC4)cc3OC)nc1-2
- GI50 (HL-60(TB) leukemia): 13.6 nM
- TGI (HL-60(TB) leukemia): 36.4 nM
- GI50 (NCI-H23 lung): 56.2 nM
- TGI (NCI-H23 lung): 2680 nM
- GI50 (HCC-2998 colon): 1380 nM
- TGI (HCC-2998 colon): 2710 nM
- GI50 (NCI/ADR-RES ovarian): 27 nM
- TGI (NCI/ADR-RES ovarian): 86.2 nM
- GI50 (TK-10 renal): 312 nM
- TGI (TK-10 renal): 2370 nM
- GI50 (RXF 393 renal): < 19.8 nM
- TGI (RXF 393 renal): 1750 nM
- GI50 (IGROV1 ovarian): 1220 nM
- TGI (IGROV1 ovarian): 2480 nM
- GI50 (K-562 leukemia): 82.4 nM
- TGI (K-562 leukemia): 1400 nM
- GI50 (COLO 205 colon): < 10 nM
- TGI (COLO 205 colon): 1250 nM
- GI50 (MCF7 breast): < 10 nM
- TGI (MCF7 breast): 2160 nM
- GI50 (RPMI-8226 leukemia): 17.8 nM
- TGI (RPMI-8226 leukemia): 57.5 nM
- GI50 (SK-MEL-2 melanoma): 196 nM
- TGI (SK-MEL-2 melanoma): 1950 nM
- GI50 (HT29 colon): 56.2 nM
- TGI (HT29 colon): 1530 nM
- GI50 (LOX IMVI melanoma): 13.4 nM
- TGI (LOX IMVI melanoma): 1360 nM
- GI50 (UACC-257 melanoma): 293 nM
- TGI (UACC-257 melanoma): 894 nM
- GI50 (OVCAR-5 ovarian): 110 nM
- TGI (OVCAR-5 ovarian): 1970 nM
- GI50 (OVCAR-3 ovarian): 110 nM
- TGI (OVCAR-3 ovarian): 2000 nM
- GI50 (HOP-62 NSCLC): < 19.6 nM
- TGI (HOP-62 NSCLC): 1760 nM
- GI50 (M14 melanoma): 200 nM
- TGI (M14 melanoma): 2150 nM
- GI50 (DU-145 prostate): 35.8 nM
- TGI (DU-145 prostate): 2320 nM
- GI50 (BT-549 breast): 48.9 nM
- TGI (BT-549 breast): 1450 nM
- GI50 (MALME-3M melanoma): 1250 nM
- TGI (MALME-3M melanoma): 2510 nM
- GI50 (NCI-H226 lung): 315 nM
- TGI (NCI-H226 lung): 2430 nM
- GI50 (SF-268 CNS): 1290 nM
- TGI (SF-268 CNS): 2770 nM
- GI50 (A549 NSCLC): < 10 nM
- TGI (A549 NSCLC): 2480 nM
- GI50 (T-47D breast): 1100 nM
- TGI (T-47D breast): 2320 nM
- GI50 (SN12C renal): 997 nM
- TGI (SN12C renal): 2160 nM
- GI50 ([…]-0 renal): 39.1 nM
- TGI (786-0 renal): 1690 nM
- GI50 (SK-MEL-28 melanoma): 1210 nM
- TGI (SK-MEL-28 melanoma): 2460 nM
- GI50 (NCI-H460 NSCLC): < 10 nM
- TGI (NCI-H460 NSCLC): 1070 nM
- GI50 (OVCAR-4 ovarian): 1490 nM
- TGI (OVCAR-4 ovarian): 2910 nM
- GI50 (MOLT-4 leukemia): < 10 nM
- GI50 (MDA-MB-468 breast): 36.2 nM
- TGI (MDA-MB-468 breast): 305 nM
- GI50 (SNB-75 CNS): 1370 nM
- TGI (SNB-75 CNS): 2690 nM
- GI50 (PC-3 prostate): 1140 nM
- TGI (PC-3 prostate): 2400 nM
- GI50 (MDA-MB-435 melanoma): 1070 nM
- TGI (MDA-MB-435 melanoma): 2580 nM
- GI50 (SK-MEL-5 melanoma): 61.5 nM
- TGI (SK-MEL-5 melanoma): 2020 nM
- GI50 (EKVX NSCLC): 283 nM
- TGI (EKVX NSCLC): 2280 nM
- GI50 (SK-OV-3 ovarian): 1260 nM
- TGI (SK-OV-3 ovarian): 2540 nM
- GI50 (MDA-MB-231 breast): 1100 nM
- TGI (MDA-MB-231 breast): 2320 nM
- GI50 (SNB-19 CNS): 1210 nM
- TGI (SNB-19 CNS): 2580 nM
- GI50 (A498 renal): < 21.9 nM
- TGI (A498 renal): 1970 nM
- GI50 (SF-539 CNS): < 19.4 nM
- TGI (SF-539 CNS): 1450 nM
- GI50 (KM12 colon): 1090 nM
- TGI (KM12 colon): 2320 nM
- GI50 (UO-31 renal): 75 nM
- TGI (UO-31 renal): 1890 nM
- GI50 (HOP-92 NSCLC): 758 nM
- TGI (HOP-92 NSCLC): 2120 nM
- GI50 (CCRF-CEM leukemia): < 10 nM
- TGI (CCRF-CEM leukemia): 11.1 nM
- GI50 (SR leukemia): < 10 nM
- GI50 (UACC-62 melanoma): 605 nM
- TGI (UACC-62 melanoma): 2180 nM
- GI50 (SF-295 CNS): 36.6 nM
- TGI (SF-295 CNS): 1820 nM
- GI50 (HCT-116 colon): < 10 nM
- TGI (HCT-116 colon): 1770 nM
- GI50 (NCI-H522 lung): 88.9 nM
- TGI (NCI-H522 lung): 1720 nM
- GI50 (ACHN renal): 37.9 nM
- TGI (ACHN renal): 2210 nM
- GI50 (CAKI-1 renal): 242 nM
- TGI (CAKI-1 renal): 2200 nM
- GI50 (OVCAR-8 ovarian): 19.8 nM
- TGI (OVCAR-8 ovarian): 1140 nM
- GI50 (U251 glioblastoma): < 11.5 nM
- TGI (U251 glioblastoma): 1480 nM
- GI50 (SW-620 colon): < 10 nM
- GI50 (NCI-H322M lung): 1480 nM
- TGI (NCI-H322M lung): 3080 nM
- GI50 (HCT-15 colon): < 10 nM
- TGI (HCT-15 colon): 1350 nM

Source: PubChem BioAssay (NCI)
